These results are taken from US20100041760A1, “MONOARYL AMINOTETRALINES” (priority 2008, published 2010).

What is called IC50 is the point on the concentration scale where inhibition reaches its midpoint. Read a low IC50 as greater potency.

Assay [1] deals with T1, thromboxane A2 receptor (TP) (Homo sapiens, UniProt P21731).
T1 construct: using human platelets as the source of the receptor; from tissue; host or cells: human platelets (whole platelets, 5x10^7 per well)
T1 sequence (P21731 1-343): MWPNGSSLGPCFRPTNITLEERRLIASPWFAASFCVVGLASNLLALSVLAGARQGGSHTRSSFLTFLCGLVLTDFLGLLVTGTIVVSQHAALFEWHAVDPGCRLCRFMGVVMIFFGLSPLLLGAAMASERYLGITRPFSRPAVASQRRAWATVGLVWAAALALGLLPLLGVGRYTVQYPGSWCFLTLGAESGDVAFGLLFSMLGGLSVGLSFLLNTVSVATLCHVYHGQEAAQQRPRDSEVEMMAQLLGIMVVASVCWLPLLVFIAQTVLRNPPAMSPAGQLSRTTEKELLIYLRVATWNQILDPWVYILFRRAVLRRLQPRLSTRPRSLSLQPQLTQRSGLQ
Put plainly: Human Thromboxane A2 Receptor Binding Assay. Conditions: human platelets; 10 nM [3H]SQ29548; 1 hour, room temperature. From the text:
The thromboxane A2 receptor (TP) plays a key role in hemostasis as its abnormality leads to bleeding disorders. To avoid the potential liability of bleeding disorders, the binding activity of certain compounds of the present invention against TP was monitored by a receptor binding assay using human platelets as the source of the receptor and [^3H]SQ29548 (generically named (5Z)-[5,6-^3H]-7-[(1S,2R,3R,4R)-3-[[2-[(phenylamino)carbonyl]hydrazinyl]methyl]-7-oxabicyclo[2.2.1]hept-2-yl]-5-heptenoic acid, from PerkinElmer Inc.) as the competing radioactive ligand.
The TP binding reactions (0.2 mL) were performed in 96-well plates at room temperature in PBS containing 5×10^7 platelets, 10 mM MgCl2, 0.06% BSA, 10 nM [^3H]SQ29548, and the test compound at various concentrations. After 1 hour of binding reactions, the platelets were harvested on GF/B filter plates (as previously described from PerkinElmer Inc.) and washed 5 times with PBS using a Filtermate™ Harvester (as previously described from PerkinElmer Inc.). The radioactivities bound to the platelets were determined using a microplate scintillation counter (TopCount® NXT, from PerkinElmer Inc.) after adding 50 μL of Microscint™ 20 scintillation fluid (from PerkinElmer Inc.) to each well of the filter plates. The radioactivity from non-specific binding was determined by replacing the compound with 10 μM of ramatroban (BAY-u3405, from Cayman Chemical Company) in the reaction mixtures. The radioactivity bound to the platelets in the absence of compound (total binding) was determined by replacing the compound with 0.25% of DMSO in the reaction mixture. Specific binding data were obtained by subtracting the radioactivity of non-specific binding from each binding data.
(§1) The IC50 value is defined as the concentration of the tested compound that is required for 50% inhibition of total specific binding. In order to calculate the IC50 value, the percent inhibition data were determined for 7 concentrations for each compound. The percent inhibition for a compound at each concentration was calculated according to the following formula, [1−(specific binding in the presence of compound)/(total specific binding)]×100. The IC50 value was then obtained by fitting the percent inhibition data to a sigmoidal dose-response (4 parameter logistic) model in the XLfit® software Excel add-in program [from ID Business Solutions Ltd., model 205, where F(x)=(A+(B−A)/(1+((C/x)̂D)))].

Assay [2] has as its target T2, human CRTH2 (Homo sapiens, UniProt Q9Y5Y4).
T2 sequence (Q9Y5Y4 1-395): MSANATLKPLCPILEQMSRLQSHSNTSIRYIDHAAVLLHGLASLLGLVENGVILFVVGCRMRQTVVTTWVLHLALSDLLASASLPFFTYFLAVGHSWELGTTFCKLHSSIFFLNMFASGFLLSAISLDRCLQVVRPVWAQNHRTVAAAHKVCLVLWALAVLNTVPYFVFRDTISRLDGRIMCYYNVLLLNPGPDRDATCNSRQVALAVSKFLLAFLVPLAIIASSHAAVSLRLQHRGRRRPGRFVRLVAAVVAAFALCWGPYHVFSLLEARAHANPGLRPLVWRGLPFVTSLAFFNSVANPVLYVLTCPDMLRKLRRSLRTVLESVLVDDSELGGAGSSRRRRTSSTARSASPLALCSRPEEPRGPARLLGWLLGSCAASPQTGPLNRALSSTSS
Put plainly: Human CRTH2 Receptor Binding Assay (whole cell, [3H]ramatroban competition). The arrangement: expressed in transfected cells; host or cells: CHO-K1 (co-transfected with G-alpha16). Conditions: CHO-K1 cells expressing human CRTH2 and G-alpha16; 20 nM [3H]ramatroban; 1 hour, room temperature.
From the text: A whole cell receptor binding assay using [^3H]ramatroban as the competing radioactive ligand was employed to evaluate the compound binding activity to human CRTH2. The radioactive ligand [^3H]ramatroban was synthesized according to Sugimoto et. al. (Eur. J. Pharmacol. 524, 30-37, 2005) to a specific activity of 42 Ci/mmol.
A cell line stably expressing human CRTH2 was established by transfecting CHO-K1 cells with two mammalian expression vectors that harbored human CRTH2 and G-alpha16 cDNAs, respectively, using FuGene® 6 transfection reagent (from Roche). Stable clones expressing CRTH2 were selected by staining each clone with BM16 (BD Pharmingen™ from BD Biosciences, a division of Becton, Dickinson and Company), which is a rat monoclonal antibody to human CRTH2. The cells were maintained as monolayer cultures in Ham's F-12 medium containing 10% fetal bovine serum, 100 units/mL penicillin, 100 μg/mL streptomycin, 2 mM glutamine, 0.5 mg/mL G418 (geneticin) for CRTH2, and 0.2 mg/mL hygromycin-B (for G-alpha 16). For whole cell receptor binding assay, the monolayer cells were rinsed once with PBS (phosphate buffered saline), dissociated using ethylenediaminetetraacetate (Versene™ EDTA from Lonza Inc.), and suspended in PBS containing 10 mM MgCl2 and 0.06% BSA (bovine serum albumin) at 1.5×10^6 cells/mL.
The binding reactions (0.2 mL) were performed in 96-well plates at room temperature in PBS containing 1.5×10^5 cells, 10 mM MgCl2, 0.06% BSA, 20 nM [^3H]ramatroban, and test compound at various concentrations. After 1 hour of binding reactions, the cells were harvested on GF™/B filter microplates (microtiter plates with embedded glass fiber from PerkinElmer, Inc.) and washed 5 times with PBS using a Filtermate™ Harvester (a cell harvester that harvests and washes cells from microplates from PerkinElmer, Inc.). The radioactivities bound to the cells were determined using a microplate scintillation counter (TopCount® NXT, from PerkinElmer, Inc.) after adding 50 μL of Microscint™ 20 scintillation fluid (from PerkinElmer, Inc.) to each well of the filter plates. The radioactivity from non-specific binding was determined by replacing compound with 10 μM of 15(R)-15-methyl PGD2 (from Cayman Chemical Company) in the reaction mixtures. The radioactivity bound to the cells in the absence of compound (total binding) was determined by replacing compound with 0.25% of DMSO (dimethyl sulfoxide) in the reaction mixture. Specific binding data were obtained by subtracting the radioactivity of non-specific binding from each binding data.
as §1

With `CC(C)c1cc(C(F)(F)F)cc(S(=O)(=O)N(C)[C@@H]2CCCc3c(OCC(=O)O)cccc32)c1` [Example 8-1, {(R)-5-[(3-isopropyl-5-trifluoromethyl-benzenesulfonyl)-methyl-amino]-5,6,7,8-tetrahydro-naphthalen-1-yloxy}-acetic acid], the figures for the IC50 in assay [1] and in assay [2] were greater than 10000 nM and 91.2 nM, respectively.
In the same order, the values of `CC(C)Oc1cc(C(F)(F)F)cc(S(=O)(=O)N(C)[C@@H]2CCCc3c(OCC(=O)O)cccc32)c1` [Example 9-1, {(R)-5-[(3-isopropoxy-5-trifluoromethyl-benzenesulfonyl)-methyl-amino]-5,6,7,8-tetrahydro-naphthalen-1-yloxy}-acetic acid] are greater than 10000 nM and 147 nM.
In the case of `CC(F)(F)c1cc(C(F)(F)F)cc(S(=O)(=O)N[C@@H]2CCCc3c(OCC(=O)O)cccc32)c1` [Example 10-2, {(R)-5-[3-(1,1-difluoro-ethyl)-5-trifluoromethyl-benzenesulfonylamino]-5,6,7,8-tetrahydro-naphthalen-1-yloxy}-acetic acid], the figures for the IC50 in assay [1] and in assay [2] were greater than 10000 nM and 6 nM, respectively.
For the compound `O=C(O)COc1cccc2c1CCC[C@H]2NS(=O)(=O)c1cc(C(F)(F)F)cc(C(F)(F)F)c1` [Example 10-3, [(R)-5-(3,5-bis-trifluoromethyl-benzenesulfonylamino)-5,6,7,8-tetrahydro-naphthalen-1-yloxy]-acetic acid], the IC50 is greater than 10000 nM in assay [1] and 6.3 nM in assay [2].
The matching figures for `Cc1cc(C)cc(S(=O)(=O)N[C@@H]2CCCc3c(OCC(=O)O)cccc32)c1` [Example 10-4, [(R)-5-(3,5-dimethyl-benzenesulfonylamino)-5,6,7,8-tetrahydro-naphthalen-1-yloxy]-acetic acid]: 8180 nM and 310 nM.
For the compound `CC(C)c1cc(C(F)(F)F)cc(S(=O)(=O)N[C@@H]2CCCc3c(OCC(=O)O)cccc32)c1` [Example 10-6, [(R)-5-(3-isopropyl-5-trifluoromethyl-benzenesulfonylamino)-5,6,7,8-tetrahydro-naphthalen-1-yloxy]-acetic acid], the IC50 in assay [1] is greater than 10000 nM; in assay [2] it was 13.5 nM.
In the same order, the values of `CC1(c2cc(C(F)(F)F)cc(S(=O)(=O)N[C@@H]3CCCc4c(OCC(=O)O)cccc43)c2)CC1` [Example 10-7, {(R)-5-[3-(1-methyl-cyclopropyl)-5-trifluoromethyl-benzenesulfonylamino]-5,6,7,8-tetrahydro-naphthalen-1-yloxy}-acetic acid] are greater than 10000 nM and 18.4 nM.
In the same order, the values of `CC(C)(C)c1cc(C(C)(C)C)cc(S(=O)(=O)N[C@@H]2CCCc3c(OCC(=O)O)cccc32)c1` [Example 10-8, [(R)-5-(3,5-di-tert-butyl-benzenesulfonylamino)-5,6,7,8-tetrahydro-naphthalen-1-yloxy]-acetic acid] are greater than 10000 nM and 31 nM.
For the compound `CS(=O)(=O)c1cc(S(C)(=O)=O)cc(S(=O)(=O)N[C@@H]2CCCc3c(OCC(=O)O)cccc32)c1` [Example 10-9, [(R)-5-(3,5-bis-methanesulfonyl-benzenesulfonylamino)-5,6,7,8-tetrahydro-naphthalen-1-yloxy]-acetic acid], the IC50 in assay [1] was greater than 10000 nM; in assay [2] it was 9 nM.
In the same order, the values of `COc1cc(C(F)(F)F)cc(S(=O)(=O)N[C@@H]2CCCc3c(OCC(=O)O)cccc32)c1` [Example 10-10, [(R)-5-(3-methoxy-5-trifluoromethyl-benzenesulfonylamino)-5,6,7,8-tetrahydro-naphthalen-1-yloxy]-acetic acid] are greater than 10000 nM and 18 nM.
In the same order, the values of `O=C(O)COc1cccc2c1CCC[C@H]2NS(=O)(=O)c1cc(Br)cc(C(F)(F)F)c1` [Example 10-11, [(R)-5-(3-bromo-5-trifluoromethyl-benzenesulfonylamino)-5,6,7,8-tetrahydro-naphthalen-1-yloxy]-acetic acid] are greater than 10000 nM and 9 nM.
